The record followed here is paper PMC5703966, “Systemic clearance and brain distribution of carbazole-based cyanine compounds as Alzheimer’s disease drug candidates” (Scientific Reports, 2017).

The nature of data set [1]: Hepatocyte stability. The conditions noted are these: ICR/CD-1, hepatocytes (cryopreserved, suspension); mouse, 1 μM input, positive controls; read-out: Hepatocytes Clint, app. It counts as in vitro ADME.
Data set [2] deals with T1, CYP1A2 (Homo sapiens, UniProt P05177).
T1 sequence (P05177 1-516): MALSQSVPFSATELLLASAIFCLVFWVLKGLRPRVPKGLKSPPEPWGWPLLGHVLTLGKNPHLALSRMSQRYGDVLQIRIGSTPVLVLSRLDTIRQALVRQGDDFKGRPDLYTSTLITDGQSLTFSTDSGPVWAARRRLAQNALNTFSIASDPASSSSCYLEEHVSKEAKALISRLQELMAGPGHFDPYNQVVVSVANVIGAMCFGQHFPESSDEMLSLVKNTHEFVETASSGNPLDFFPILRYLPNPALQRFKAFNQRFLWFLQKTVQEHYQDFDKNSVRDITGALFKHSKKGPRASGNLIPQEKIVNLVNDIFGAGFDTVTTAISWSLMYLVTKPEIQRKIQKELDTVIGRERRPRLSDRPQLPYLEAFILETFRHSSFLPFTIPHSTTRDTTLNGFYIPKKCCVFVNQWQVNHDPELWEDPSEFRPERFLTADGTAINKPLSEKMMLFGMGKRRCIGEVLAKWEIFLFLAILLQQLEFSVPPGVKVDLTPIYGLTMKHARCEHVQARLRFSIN
The conditions noted are these: hepatocytes.
Procedure: The samples were centrifuged at approximately 1,900 g for 10 mins before LC-MS/MS analysis.
The C YP3A4 and CYP1A2 activities in human hepatocytes were assayed by testosterone 6β-

For data set [3], the system named is Caco-2 cells. Kind of data set: In vitro permeability study using Caco-2 cell. The conditions noted are these: Caco-2, 1 μM input, positive controls. Background: Caco-2 monolayers are a common model of the intestinal barrier.
Data set [4] has as its target T2, OATP1A2 (Homo sapiens, UniProt P46721).
T2 sequence (P46721 1-670): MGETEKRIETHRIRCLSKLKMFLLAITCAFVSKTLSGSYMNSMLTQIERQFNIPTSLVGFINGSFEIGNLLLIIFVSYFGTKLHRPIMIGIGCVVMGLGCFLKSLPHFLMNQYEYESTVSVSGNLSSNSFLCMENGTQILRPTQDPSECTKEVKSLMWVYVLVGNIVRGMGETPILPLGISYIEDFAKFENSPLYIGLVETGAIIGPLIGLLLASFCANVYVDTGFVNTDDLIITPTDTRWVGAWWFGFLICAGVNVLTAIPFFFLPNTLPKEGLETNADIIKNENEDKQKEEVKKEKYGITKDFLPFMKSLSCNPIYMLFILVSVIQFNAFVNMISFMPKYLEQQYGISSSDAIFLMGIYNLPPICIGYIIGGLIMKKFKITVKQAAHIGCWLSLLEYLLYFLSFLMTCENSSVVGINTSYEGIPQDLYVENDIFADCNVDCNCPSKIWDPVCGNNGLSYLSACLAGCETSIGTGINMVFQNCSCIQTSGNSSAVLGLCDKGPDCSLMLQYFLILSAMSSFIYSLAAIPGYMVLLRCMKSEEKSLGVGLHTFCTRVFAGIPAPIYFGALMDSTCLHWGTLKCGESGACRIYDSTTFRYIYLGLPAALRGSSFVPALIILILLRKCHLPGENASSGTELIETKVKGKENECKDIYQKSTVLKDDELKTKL
Kind of data set: OATP substrate identification, uptake in stably transfected HEK293 cells. How it is done: (§1) Daily changes of medium were performed and on the second day after seeding using medium containing 10 mM sodium butyrate.
(§2) Stably transfected HEK cells and control vector-transfected HEK293 cells were first washed (3 × 1 mL) with prewarmed HBSS (pH 7.4) and then were incubated with 250 μL of HBSS containing compounds at concentrations of 1 and 10 μM. Cells were incubated for 10 mins at 37 °C for all experiments. After incubation, uptake was stopped by aspirating the incubation solution and washing each well 3 times with 200 μL of ice-old HBSS. The cells were lysed in 150 μL of 1 M NaOH for 30 mins, and then neutralized by adding equal volumes of 1 M HCl.
(§3) The following equations (3 and 4) were used to calculate the uptake rates (U, pmol/mg/min) and the OATP1B1, OATP1B3, OATP2B1 and OATP1A2 uptake ratio (UR):3 U=Clysate/P×T 4 UR=UOATP1B1/1B3/2B1/1A2/UHEK293−MOCK where C lysate is the compound concentration in cell lysates. P is the protein concentration in cell lysates. T is the incubation time. U OATP1B1/1B3/2B1/1A2 is the uptake rate obtained in HEK293 stably transfected OATP1B1, OATP1B3, OATP2B1 or OATP1A2 transportation. U HEK293-MOCK is the uptake rate obtained in control vector-transfected HEK293 transportation.

The target in data set [5] is T3, OATP2B1 (Homo sapiens, UniProt O94956).
T3 sequence (O94956 1-709): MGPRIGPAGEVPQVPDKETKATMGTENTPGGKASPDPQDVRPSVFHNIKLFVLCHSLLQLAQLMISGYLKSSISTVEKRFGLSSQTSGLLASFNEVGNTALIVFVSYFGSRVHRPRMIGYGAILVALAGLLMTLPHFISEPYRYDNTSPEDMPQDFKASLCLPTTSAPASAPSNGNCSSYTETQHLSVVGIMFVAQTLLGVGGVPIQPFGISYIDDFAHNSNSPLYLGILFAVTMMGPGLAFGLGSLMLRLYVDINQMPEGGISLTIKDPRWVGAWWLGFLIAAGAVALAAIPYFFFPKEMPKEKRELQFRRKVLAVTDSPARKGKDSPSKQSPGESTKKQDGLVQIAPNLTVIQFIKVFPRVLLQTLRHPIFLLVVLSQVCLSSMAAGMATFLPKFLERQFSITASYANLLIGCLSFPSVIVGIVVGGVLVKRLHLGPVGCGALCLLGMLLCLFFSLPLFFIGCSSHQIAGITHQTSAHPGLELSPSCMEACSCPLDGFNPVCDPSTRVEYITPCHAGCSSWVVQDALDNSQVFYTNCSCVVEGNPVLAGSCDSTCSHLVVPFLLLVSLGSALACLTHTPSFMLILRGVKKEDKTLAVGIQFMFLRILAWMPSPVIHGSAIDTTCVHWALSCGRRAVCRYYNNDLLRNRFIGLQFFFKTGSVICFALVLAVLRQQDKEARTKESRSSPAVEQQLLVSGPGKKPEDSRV
Described as above. The conditions noted are these: positive control. How it is done:
as §1, §2, §3

The target of data set [6] is T4, OATP1B1 (Homo sapiens, UniProt Q9Y6L6).
T4 sequence (Q9Y6L6 1-691): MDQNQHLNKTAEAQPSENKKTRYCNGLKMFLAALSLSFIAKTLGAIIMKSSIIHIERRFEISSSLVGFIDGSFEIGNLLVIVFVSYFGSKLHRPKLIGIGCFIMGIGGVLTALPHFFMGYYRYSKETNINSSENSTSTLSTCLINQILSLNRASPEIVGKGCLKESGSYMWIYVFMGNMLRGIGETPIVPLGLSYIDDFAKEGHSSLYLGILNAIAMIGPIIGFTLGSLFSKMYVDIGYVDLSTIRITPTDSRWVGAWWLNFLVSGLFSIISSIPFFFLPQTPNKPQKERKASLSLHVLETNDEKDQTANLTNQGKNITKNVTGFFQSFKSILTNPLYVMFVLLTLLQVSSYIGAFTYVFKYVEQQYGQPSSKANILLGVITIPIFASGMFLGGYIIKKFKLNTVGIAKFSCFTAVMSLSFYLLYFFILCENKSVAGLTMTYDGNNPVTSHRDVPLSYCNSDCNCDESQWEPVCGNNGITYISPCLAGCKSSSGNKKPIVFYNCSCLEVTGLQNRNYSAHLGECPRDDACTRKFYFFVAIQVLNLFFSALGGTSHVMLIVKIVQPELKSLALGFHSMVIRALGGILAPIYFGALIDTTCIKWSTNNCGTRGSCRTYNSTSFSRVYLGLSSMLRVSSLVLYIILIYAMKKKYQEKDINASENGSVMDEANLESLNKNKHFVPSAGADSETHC
The description is as above. How it is done: as §1, §2, §3

In data set [7] the target is T5, OATP1B3 (Homo sapiens, UniProt Q9NPD5).
T5 sequence (Q9NPD5 1-702): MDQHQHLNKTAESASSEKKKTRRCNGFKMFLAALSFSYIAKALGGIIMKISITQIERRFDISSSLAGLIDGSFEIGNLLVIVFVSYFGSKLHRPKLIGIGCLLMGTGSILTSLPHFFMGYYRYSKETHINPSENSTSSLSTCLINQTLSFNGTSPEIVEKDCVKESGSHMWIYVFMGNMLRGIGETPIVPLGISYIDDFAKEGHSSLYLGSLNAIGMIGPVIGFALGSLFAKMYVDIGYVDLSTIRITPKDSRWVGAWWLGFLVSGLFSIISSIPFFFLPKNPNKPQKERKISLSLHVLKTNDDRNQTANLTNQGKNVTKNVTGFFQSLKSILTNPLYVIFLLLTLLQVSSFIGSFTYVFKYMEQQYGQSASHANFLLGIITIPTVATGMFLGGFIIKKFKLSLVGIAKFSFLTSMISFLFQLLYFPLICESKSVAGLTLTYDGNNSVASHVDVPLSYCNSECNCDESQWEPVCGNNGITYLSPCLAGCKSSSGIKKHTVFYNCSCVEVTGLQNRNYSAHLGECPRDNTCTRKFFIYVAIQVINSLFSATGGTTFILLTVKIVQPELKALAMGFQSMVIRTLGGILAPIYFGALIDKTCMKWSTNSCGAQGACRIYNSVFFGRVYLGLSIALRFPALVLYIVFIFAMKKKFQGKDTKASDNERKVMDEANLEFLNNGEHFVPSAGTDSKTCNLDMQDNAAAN
The description is as above. Here is the method:
as §1, §2, §3

As for `CCOc1ccc(NC(C)=O)cc1` [Phenacetin, reference compound], the hepatocyte CLint at 1 μM in data set [1] is 33 ± 8 µL/min/1e6 cells. In addition, the “phenacetin O-deethylation (CYP1A2 activity)” value in data set [2] is 24.3 ± 3.25 pmol/min/106 cells.

For `O=C([O-])c1ccccc1-c1c2ccc(=O)cc-2oc2cc([O-])ccc12.[Na+].[Na+]` [Sodium fluorescein], the “Papp (A-B)” value in data set [3] is given as 1.40 ± 0.260 (cm/s) × 10-6. For `C[C@]12CC[C@@H]3c4ccc(OS(=O)(=O)O)cc4CC[C@H]3[C@@H]1CCC2=O` [estrone-3-sulfate, reference compound], the “uptake ratio of OATP1A2” value in data set [4] was 18 ± 3.7. In addition, the “uptake ratio of OATP2B1” value in data set [5] came to 13 ± 2.9. In the case of `C[C@]12CC[C@@H]3c4ccc(O)cc4CC[C@H]3[C@@H]1CC[C@@H]2O[C@@H]1O[C@H](C(=O)O)[C@@H](O)[C@H](O)[C@H]1O` [β-Estradiol 17-β-D-glucuronide, reference compound], in data set [6], the “uptake ratio of OATP1B1” value stood at 45 ± 7.6. The “uptake ratio of OATP1B3” value in data set [7] is 10 ± 3.0.
